Test results published in EP4782453A1 (Beyang Therapeutics Co., Ltd., priority 2023, dated 2025).

biological target: T1, Menin-MLL (Homo sapiens, UniProt O00255); experiment: Inhibitory activity against Menin-MLL binding (fluorescence polarization); conditions: Menin-MLL IC50, fluorescence polarization; 150 nM His-Menin, 15 nM FITC-MLL; 25°C for 60 min
T1 construct: His-Menin (M1-L615 end); purchased BIORTUS BP9210
T1 sequence (O00255 1-615 isoform O00255-1): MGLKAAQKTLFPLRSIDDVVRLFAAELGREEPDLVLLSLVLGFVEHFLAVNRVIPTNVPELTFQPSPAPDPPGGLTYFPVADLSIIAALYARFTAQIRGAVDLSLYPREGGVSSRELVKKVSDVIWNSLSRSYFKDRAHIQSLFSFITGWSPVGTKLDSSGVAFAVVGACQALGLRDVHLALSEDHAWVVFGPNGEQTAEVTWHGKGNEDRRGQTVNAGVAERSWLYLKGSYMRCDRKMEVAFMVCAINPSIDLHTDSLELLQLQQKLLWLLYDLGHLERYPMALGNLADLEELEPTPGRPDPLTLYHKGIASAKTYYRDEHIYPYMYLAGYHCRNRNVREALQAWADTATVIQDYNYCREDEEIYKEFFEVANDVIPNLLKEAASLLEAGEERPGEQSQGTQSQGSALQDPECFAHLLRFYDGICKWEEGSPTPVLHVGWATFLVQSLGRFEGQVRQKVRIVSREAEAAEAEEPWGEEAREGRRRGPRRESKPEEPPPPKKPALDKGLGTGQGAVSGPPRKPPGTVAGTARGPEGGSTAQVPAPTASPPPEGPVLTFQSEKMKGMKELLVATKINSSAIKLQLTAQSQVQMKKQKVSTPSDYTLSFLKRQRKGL
Protocol: • His-Menin (M1-L615 end), purchased from BIORTUS, Catalog Number: BP9210; and • FITC-MLL4-43, purchased from GenScript, Catalog Number: C491HFF190-3/PE1324.
In a 10 µL reaction solution (20 mM HEPES, pH 7.5, 50 mM NaCl, 1 mM DTT, 0.01% BSA) containing any compound from the examples, 150 nM His-Menin was added to a 384-well plate (Corning, Model: 4514). Each concentration was set up in duplicate wells. After centrifugation at 1000 RPM for 1 min, the plate was incubated at 25°C for 15 min. Then, 15 nM […] (20 mM HEPES, pH 7.5, 50 mM NaCl, 1 mM DTT, 0.01% BSA) was added to a 384-well plate. After centrifugation at 1000 RPM for 1 min, the reaction proceeded at 25°C for 60 min. Changes in fluorescence polarization were measured using a plate reader (PerkinElmer, Envision 2104). Based on the measured signals, the binding inhibition rate of the compound at each concentration was calculated, and the IC50 (half-maximal inhibitory concentration) of the compound was determined using statistical analysis software GraphPad Prism (GraphPad Software, Inc.) by means of a nonlinear fitting formula: 4-Parameter Logistic Model or Sigmoidal Dose-Response Model: Y = Bottom + (Top−Bottom)/(1 + 10^((LogIC50−X) × Hill Slope)), [formula] in which X indicates the logarithm of compound concentration, Y indicates a fluorescence polarization mP value, and Top and Bottom indicate the maximum and minimum readouts of fluorescence polarization mP values. Table 1: Inhibitory Activity of Compounds Against Menin-MLL Binding

Compound | IC50 [nM]
CCN(C(=O)c1cc(F)ccc1-c1cc(N2CCN(C(=O)C3NC4CCC3CC4)CC2)cn2c(C)ncc12)C(C)C [Compound 59, N-ethyl-5-fluoro-2-(3-methyl-6-{4-[(1R,3S,4S)-2-azabicyclo[2.2.2]octan-3-carbonyl]piperazin-1-yl}imidazo[1,5-a]pyridin-8-yl)-N-(isopropyl)benzamide] | 23
CCN(C(=O)c1cc(F)ccc1-c1cc(N2CCN(C(=O)C3NC4CCC3CC4)CC2)cn2c(C=O)ncc12)C(C)C [Example 76, N-ethyl-5-fluoro-2-(3-formyl-6-{4-[(1R,3S,4S)-2-azabicyclo[2.2.2]octan-3-carbonyl]piperazin-1-yl}imidazo[1,5-a]pyridin-8-yl)-N-(isopropyl)benzamide] | 40
CCN(C(=O)c1cc(F)ccc1-c1cc(C2CCN(C[C@]3(O)CC[C@@H](NS(=O)(=O)CC)CC3)C2)cc2c1cnn2C)C(C)C (stereo partly shown) [Compound 55, N-ethyl-5-fluoro-2-[1-methyl-6-(1-{[(1s,4s)-4-ethanesulfonamido-1-hydroxylcyclohexyl]methyl}pyrrolidin-3-yl)-1H-indazol-4-yl]-N-(isopropyl)benzamide] | 21

same assay, conditions: fluorescence polarization; 150 nM His-Menin, 15 nM FITC-MLL; 25°C for 60 min; read-out: Menin-MLL IC50

Compound | IC50 [nM]
C[C@@H]1COCCN1C(=O)c1cc(F)ccc1-c1cc(C2CN(CC3CCN(C(=O)C4(O)CC4)CC3)C2)cc2c1cnn2C [Example 171, 1-(4-{[3-(4-{4-fluoro-2-[(3R)-3-methylmorpholin-4-carbonyl]phenyl}-1-methyl-1H-indazol-6-yl)azacyclobutan-1-yl]methyl}piperidin-1-carbonyl)cyclopropan-1-ol] | 86
CCN(C(=O)c1cc(F)ccc1-c1cc(C2CCN(C[C@H]3CC[C@H](N4CCOC4=O)CC3)C2)nc2c1cnn2C)C(C)C (stereo partly shown) [Example 28] | 118
C[C@@H]1COCCN1C(=O)c1cc(F)ccc1-c1cc(C2CN(CC3CCN(C(=O)CC#N)CC3)C2)cc2c1cnn2C [Example 173] | 118
COCC(C1CCOCC1)N1CC(c2cc(-c3ccc(F)cc3C(=O)N3CCOC[C@H]3C)c3c(F)nc(C)n3c2)C1 (stereo partly drawn) [Example 255, (3R)-4-[5-fluoro-2-(1-fluoro-6-{1-[2-methoxy-1-(oxacyclohexan-4-yl)ethyl]azacyclobutan-3-yl}-3-methylimidazo[1,5-a]pyridin-8-yl)benzoyl]-3-methylmorpholine] | 86
Cc1nc(F)c2c(-c3ccc(F)cc3C(=O)N3CCOC[C@H]3C)cc(C3CN(CC4CCN(C(=O)C5(C#N)CC5)CC4)C3)cn12 [Example 254] | 48

Other lines, results leading:

IC50 [nM] | Compound
15 | CCN(C(=O)C(C)C)c1cc(F)ccc1-c1cc(N2CCN(C(=O)C3NC4CCC3CC4)CC2)cn2c(C)ncc12 [Example 71, N-ethyl-N-[5-fluoro-2-(3-methyl-6-{4-[(1R,3S,4S)-2-azabicyclo[2.2.2]octan-3-carbonyl]piperazin-1-yl}imidazo[1,5-a]pyridin-8-yl)phenyl]-2-methylpropionamide]
79 | CCN(C(=O)c1cc(F)ccc1-c1cc(C2CN([C@H](C)C3CCN(C(C)=O)CC3)C2)cn2c(C)ncc12)C(C)C [Example 281-2]
6 | CO[C@@H]1CN(CCC[C@H](C(C)C)N2CC(c3cc(-c4ccc(F)cc4C(=O)N4CCOC[C@H]4C)c4c(F)nc(C)n4c3)C2)C[C@H]1O [Example 291-1, (3R,4R)-1-[(4R)-4-[3-(1-fluoro-8-{4-fluoro-2-[(3R)-3-methylmorpholin-4-carbonyl]phenyl}-3-methylimidazo[1,5-a]pyridin-6-yl)azacyclobutan-1-yl]-5-methylhexyl]-4-methoxypyrrolidin-3-ol]
41 | Cc1ncc2c(-c3ccc(F)cc3C(=O)N(CC(F)F)C(C)C)cc(N3CCN(C(=O)[C@@H]4CCCN4)CC3)cn12 [Example 119]
43 | CCN(C(=O)c1cc(F)ccc1-c1cc(C2CN(C(C[C@@H]3CN(C(=O)OC(C)(C)C)CCO3)C(C)C)C2)cn2c(C)ncc12)C(C)C (stereo partly drawn) [Example 461, (2R)-2-{2-[3-(8-{2-[ethyl(isopropyl)aminoformyl]-4-fluorophenyl}-3-methylimidazo[1,5-a]pyridin-6-yl)azacyclobutan-1-yl]-3-methylbutyl}morpholin-4-tert-butyl carboxylate]
